Each structure is given as a SMILES string.

The assay has as its target T1, human PAH with the R408W mutation (A375 R408W cells) (Homo sapiens, UniProt P00439, R408W).
T1 construct: expressed in transfected cells
T1 sequence (P00439 1-452 R408W): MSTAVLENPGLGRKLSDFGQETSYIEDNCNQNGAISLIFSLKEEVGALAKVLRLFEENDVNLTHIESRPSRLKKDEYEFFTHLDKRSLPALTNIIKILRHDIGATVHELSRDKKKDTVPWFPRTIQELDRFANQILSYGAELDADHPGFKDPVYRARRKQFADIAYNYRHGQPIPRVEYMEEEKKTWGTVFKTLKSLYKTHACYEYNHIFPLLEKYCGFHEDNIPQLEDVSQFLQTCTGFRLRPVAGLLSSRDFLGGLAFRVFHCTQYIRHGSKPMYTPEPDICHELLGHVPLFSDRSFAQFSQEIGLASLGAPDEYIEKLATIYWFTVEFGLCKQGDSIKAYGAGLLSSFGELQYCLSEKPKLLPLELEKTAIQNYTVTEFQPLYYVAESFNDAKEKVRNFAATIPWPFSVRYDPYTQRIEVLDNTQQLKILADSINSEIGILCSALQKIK
The assay is described as follows: Cell Based Phenylalanine Flux Assay. The note with it: A375 R408W cells; 24 hrs with compound, then 20 μM sepiapterin and 800 μM 13C9,15N-Phenylalanine for 4 hours; 13C-Tyrosine by LC-MS; average where tested multiple times. The method, boiled down: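 Phenylalanine-to-tyrosine flux is measured in A375 cells carrying stable human R408W PAH. After 24 h compound exposure, 13C9,15N-Phe (800 μM) with sepiapterin (20 μM) is supplied for 4 h and media 13C-Tyr is read by LC-MS; AC50s are binned.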
Take `Cn1cc(-c2ncc(C(=O)N3CCc4[nH]cnc4[C@H]3c3nc4cc(F)ccc4o3)s2)cn1` [Example 9, (S)-(4-(5-fluorobenzo[d]oxazol-2-yl)-6,7-dihydro-1H-imidazo[4,5-c]pyridin-5(4H)-yl)(2-(1-methyl-1H-pyrazol-4-yl)thiazol-5-yl)methanone]: the AC50 is at most 500 nM.
In the case of `Cn1cc(-c2ncc(C(=O)N3CCc4[nH]cnc4[C@@H]3c3nc4cc(F)ccc4o3)s2)cn1` [Example 10, (R)-(4-(5-fluorobenzo[d]oxazol-2-yl)-6,7-dihydro-1H-imidazo[4,5-c]pyridin-5(4H)-yl)(2-(1-methyl-1H-pyrazol-4-yl)thiazol-5-yl)methanone] it was 1000 to 5000 nM; in that of `O=C(c1cnc(-c2ccccn2)o1)N1CCc2[nH]cnc2[C@H]1c1nc2cc(F)ccc2o1` [Example 11, (S)-(4-(5-fluorobenzo[d]oxazol-2-yl)-6,7-dihydro-1H-imidazo[4,5-c]pyridin-5(4H)-yl)(2-(pyridin-2-yl)oxazol-5-yl)methanone], 500 to 1000 nM.
As for `O=C(c1cnc(-c2ccccn2)o1)N1CCc2[nH]cnc2[C@@H]1c1nc2cc(F)ccc2o1` [Example 12, (R)-(4-(5-fluorobenzo[d]oxazol-2-yl)-6,7-dihydro-1H-imidazo[4,5-c]pyridin-5(4H)-yl)(2-(pyridin-2-yl)oxazol-5-yl)methanone], the half-maximal activity concentration (AC50) lay within 1000 to 5000 nM.
In the case of `CC(C)(F)c1ncc(C(=O)N2CCc3[nH]cnc3[C@H]2c2nc3cc(F)ccc3o2)o1` [Example 13, (S)-(4-(5-fluorobenzo[d]oxazol-2-yl)-6,7-dihydro-1H-imidazo[4,5-c]pyridin-5(4H)-yl)(2-(2-fluoropropan-2-yl)oxazol-5-yl)methanone] it was at most 500 nM; in that of `CC(C)(F)c1ncc(C(=O)N2CCc3[nH]cnc3[C@@H]2c2nc3cc(F)ccc3o2)o1` [Example 14, (R)-(4-(5-fluorobenzo[d]oxazol-2-yl)-6,7-dihydro-1H-imidazo[4,5-c]pyridin-5(4H)-yl)(2-(2-fluoropropan-2-yl)oxazol-5-yl)methanone], 1000 to 5000 nM.
On to `O=C(c1nnc(C2CC2)o1)N1CCc2[nH]cnc2[C@H]1c1nc2cc(F)ccc2o1` [Example 15, (S)-(5-cyclopropyl-1,3,4-oxadiazol-2-yl)(4-(5-fluorobenzo[d]oxazol-2-yl)-6,7-dihydro-1H-imidazo[4,5-c]pyridin-5(4H)-yl)methanone], for which the half-maximal activity concentration (AC50) is 500 to 1000 nM.
Take `O=C(c1nnc(C2CC2)o1)N1CCc2[nH]cnc2[C@@H]1c1nc2cc(F)ccc2o1` [Example 16, (R)-(5-cyclopropyl-1,3,4-oxadiazol-2-yl)(4-(5-fluorobenzo[d]oxazol-2-yl)-6,7-dihydro-1H-imidazo[4,5-c]pyridin-5(4H)-yl)methanone]: the AC50 is 1000 to 5000 nM.
In the case of `CC(C)(C)c1ncc(C(=O)N2CCc3[nH]cnc3[C@H]2c2nc3cc(F)ccc3o2)s1` [Example 17, (S)-(2-(tert-butyl)thiazol-5-yl)(4-(5-fluorobenzo[d]oxazol-2-yl)-6,7-dihydro-1H-imidazo[4,5-c]pyridin-5(4H)-yl)methanone] it was at most 500 nM.
As to `CC(C)(C)c1ncc(C(=O)N2CCc3[nH]cnc3[C@@H]2c2nc3cc(F)ccc3o2)s1` [Example 18, (R)-(2-(tert-butyl)thiazol-5-yl)(4-(5-fluorobenzo[d]oxazol-2-yl)-6,7-dihydro-1H-imidazo[4,5-c]pyridin-5(4H)-yl)methanone], the AC50 was 1000 to 5000 nM.
Turning to `Cc1ccc2c(C(=O)N3CCc4[nH]cnc4[C@H]3c3nc4cc(F)ccc4o3)cnn2c1` [Example 19, (S)-(4-(5-fluorobenzo[d]oxazol-2-yl)-6,7-dihydro-1H-imidazo[4,5-c]pyridin-5(4H)-yl)(6-methylpyrazolo[1,5-a]pyridin-3-yl)methanone], the half-maximal activity concentration (AC50) fell in the range of 1000 to 5000 nM.
With `Cc1ccc2c(C(=O)N3CCc4[nH]cnc4[C@@H]3c3nc4cc(F)ccc4o3)cnn2c1` [Example 20, (R)-(4-(5-fluorobenzo[d]oxazol-2-yl)-6,7-dihydro-1H-imidazo[4,5-c]pyridin-5(4H)-yl)(6-methylpyrazolo[1,5-a]pyridin-3-yl)methanone], the AC50 was at least 5000 nM.
In the case of `CC(C)(C)c1ncc(C(=O)N2CCc3[nH]cnc3[C@H]2c2nc3cc(F)ccc3o2)o1` [Example 21, (S)-(2-(tert-butyl)oxazol-5-yl)(4-(5-fluorobenzo[d]oxazol-2-yl)-6,7-dihydro-1H-imidazo[4,5-c]pyridin-5(4H)-yl)methanone] it was at most 500 nM.
Next, `CC(C)(C)c1ncc(C(=O)N2CCc3[nH]cnc3[C@@H]2c2nc3cc(F)ccc3o2)o1` [Example 22, (R)-(2-(tert-butyl)oxazol-5-yl)(4-(5-fluorobenzo[d]oxazol-2-yl)-6,7-dihydro-1H-imidazo[4,5-c]pyridin-5(4H)-yl)methanone]: 1000 to 5000 nM; `O=C(c1ocnc1C(F)(F)F)N1CCc2[nH]cnc2[C@H]1c1nc2cc(F)ccc2o1` [Example 23, (S)-(4-(5-fluorobenzo[d]oxazol-2-yl)-6,7-dihydro-1H-imidazo[4,5-c]pyridin-5(4H)-yl)(4-(trifluoromethyl)oxazol-5-yl)methanone]: at most 500 nM.
Next, `O=C(c1ocnc1C(F)(F)F)N1CCc2[nH]cnc2[C@@H]1c1nc2cc(F)ccc2o1` [Example 24]: 1000 to 5000 nM.
On to `O=C(c1nnc(-c2c(F)cccc2F)o1)N1CCc2[nH]cnc2[C@H]1c1nc2cc(F)ccc2o1` [Example 25, (S)-(5-(2,6-difluorophenyl)-1,3,4-oxadiazol-2-yl)(4-(5-fluorobenzo[d]oxazol-2-yl)-6,7-dihydro-1H-imidazo[4,5-c]pyridin-5(4H)-yl)methanone], for which the half-maximal activity concentration (AC50) is at most 500 nM.
In the case of `O=C(c1nnc(-c2c(F)cccc2F)o1)N1CCc2[nH]cnc2[C@@H]1c1nc2cc(F)ccc2o1` [Example 26, (R)-(5-(2,6-difluorophenyl)-1,3,4-oxadiazol-2-yl)(4-(5-fluorobenzo[d]oxazol-2-yl)-6,7-dihydro-1H-imidazo[4,5-c]pyridin-5(4H)-yl)methanone] it was 500 to 1000 nM; in that of `O=C(c1nnc(-c2ccc(F)cc2)o1)N1CCc2[nH]cnc2[C@H]1c1nc2cc(F)ccc2o1` [Example 27, (S)-(4-(5-fluorobenzo[d]oxazol-2-yl)-6,7-dihydro-1H-imidazo[4,5-c]pyridin-5(4H)-yl)(5-(4-fluorophenyl)-1,3,4-oxadiazol-2-yl)methanone], at most 500 nM.
In the case of `O=C(c1nnc(-c2ccc(F)cc2)o1)N1CCc2[nH]cnc2[C@@H]1c1nc2cc(F)ccc2o1` [Example 28, (R)-(4-(5-fluorobenzo[d]oxazol-2-yl)-6,7-dihydro-1H-imidazo[4,5-c]pyridin-5(4H)-yl)(5-(4-fluorophenyl)-1,3,4-oxadiazol-2-yl)methanone] it was 1000 to 5000 nM; in that of `COCc1ccc2c(C(=O)N3CCc4[nH]cnc4[C@H]3c3nc4cc(F)ccc4o3)cnn2c1` [Example 29, (S)-(4-(5-fluorobenzo[d]oxazol-2-yl)-6,7-dihydro-1H-imidazo[4,5-c]pyridin-5(4H)-yl)(6-(methoxymethyl)pyrazolo[1,5-a]pyridin-3-yl)methanone], 1000 to 5000 nM; in that of `Cc1nc(-c2ccccn2)oc1C(=O)N1CCc2[nH]cnc2[C@H]1c1nc2cc(F)ccc2o1` [Example 31, (S)-(4-(5-fluorobenzo[d]oxazol-2-yl)-6,7-dihydro-1H-imidazo[4,5-c]pyridin-5(4H)-yl)(4-methyl-2-(pyridin-2-yl)oxazol-5-yl)methanone], 500 to 1000 nM.
Next, `Cc1nc(-c2ccccn2)oc1C(=O)N1CCc2[nH]cnc2[C@@H]1c1nc2cc(F)ccc2o1` [Example 32, (R)-(4-(5-fluorobenzo[d]oxazol-2-yl)-6,7-dihydro-1H-imidazo[4,5-c]pyridin-5(4H)-yl)(4-methyl-2-(pyridin-2-yl)oxazol-5-yl)methanone]: 1000 to 5000 nM; `O=C(c1nnc(-c2ccc(F)cn2)o1)N1CCc2[nH]cnc2[C@H]1c1nc2cc(F)ccc2o1` [Example 33, (S)-(4-(5-fluorobenzo[d]oxazol-2-yl)-6,7-dihydro-1H-imidazo[4,5-c]pyridin-5(4H)-yl)(5-(5-fluoropyridin-2-yl)-1,3,4-oxadiazol-2-yl)methanone]: 500 to 1000 nM; `O=C(c1nnc(-c2ccc(F)cn2)o1)N1CCc2[nH]cnc2[C@@H]1c1nc2cc(F)ccc2o1` [Example 34, (R)-(4-(5-fluorobenzo[d]oxazol-2-yl)-6,7-dihydro-1H-imidazo[4,5-c]pyridin-5(4H)-yl)(5-(5-fluoropyridin-2-yl)-1,3,4-oxadiazol-2-yl)methanone]: 1000 to 5000 nM.
`CC(F)(F)c1ncc(C(=O)N2CCc3[nH]cnc3[C@H]2c2nc3cc(F)ccc3o2)s1` [Example 35, (S)-(2-(1,1-difluoroethyl)thiazol-5-yl)(4-(5-fluorobenzo[d]oxazol-2-yl)-6,7-dihydro-1H-imidazo[4,5-c]pyridin-5(4H)-yl)methanone]: the AC50 is 500 to 1000 nM.
Take `CC(F)(F)c1ncc(C(=O)N2CCc3[nH]cnc3[C@@H]2c2nc3cc(F)ccc3o2)s1` [Example 36, (R)-(2-(1,1-difluoroethyl)thiazol-5-yl)(4-(5-fluorobenzo[d]oxazol-2-yl)-6,7-dihydro-1H-imidazo[4,5-c]pyridin-5(4H)-yl)methanone]: the AC50 fell in the range of 1000 to 5000 nM.

As a reminder, the AC50 is the concentration giving half of the maximal activity seen.
